The OligoGym collection
Oligonucleotides are written 5' to 3', each unit as a sugar letter and its base; * is a phosphorothioate linkage, no mark a phosphodiester; rarer units and linkages stand in square brackets, end groups in braces. Plain capitals give the bases only. d = 2'-deoxy (DNA); r = 2'-OH (RNA)

Target: DENND5A
Test: reporter assay of Huesken 2005
Details: siRNA
Note: test concentration or dose not given here.

Substance	normalised inhibition (eCFP-eYFP dual reporter) [%]
sense rUrArUrGrArGrGrCrGrUrUrUrGrUrCrArUrCrCdTdT / antisense rGrGrArUrGrArCrArArArCrGrCrCrUrCrArUrAdAdT	44.9
sense rUrCrArCrUrGrCrCrArArCrCrCrArUrGrGrArUdTdT / antisense rArUrCrCrArUrGrGrGrUrUrGrGrCrArGrUrGrAdAdC	57.8
sense rUrCrArGrUrGrUrGrArUrGrArArGrArArGrArAdTdT / antisense rUrUrCrUrUrCrUrUrCrArUrCrArCrArCrUrGrAdAdC	75.2
sense rUrCrCrCrCrUrUrUrGrCrArUrUrCrCrUrArCrGdTdT / antisense rCrGrUrArGrGrArArUrGrCrArArArGrGrGrGrAdGdC	44.7
sense rUrCrUrCrCrUrGrCrArUrUrUrCrUrUrArGrArUdTdT / antisense rArUrCrUrArArGrArArArUrGrCrArGrGrArGrAdGdA	51.3
sense rUrCrUrGrArUrGrUrArCrUrUrUrCrCrArCrUrGdTdT / antisense rCrArGrUrGrGrArArArGrUrArCrArUrCrArGrAdCdT	47.9
sense rUrCrUrUrGrArUrUrCrArGrArArCrGrUrArGrGdTdT / antisense rCrCrUrArCrGrUrUrCrUrGrArArUrCrArArGrAdAdG	29.1
sense rUrCrUrUrUrCrArArUrGrCrCrGrUrCrGrArUrUdTdT / antisense rArArUrCrGrArCrGrGrCrArUrUrGrArArArGrAdCdA	52.7
sense rUrGrArArGrArGrGrUrGrArCrUrArGrCrArArGdTdT / antisense rCrUrUrGrCrUrArGrUrCrArCrCrUrCrUrUrCrAdTdA	68.6
sense rUrGrArArGrGrArArUrGrCrCrGrCrArArUrArAdTdT / antisense rUrUrArUrUrGrCrGrGrCrArUrUrCrCrUrUrCrAdGdC	77.7
sense rUrGrArArUrGrUrUrCrGrGrArCrArCrCrUrArCdTdT / antisense rGrUrArGrGrUrGrUrCrCrGrArArCrArUrUrCrAdAdC	49
sense rUrGrArUrCrUrCrCrUrGrGrArArArGrGrArUrCdTdT / antisense rGrArUrCrCrUrUrUrCrCrArGrGrArGrArUrCrAdCdA	44.1
sense rUrGrCrArArArArCrUrUrUrGrArUrArArArGrCdTdT / antisense rGrCrUrUrUrArUrCrArArArGrUrUrUrUrGrCrAdTdT	46
sense rUrGrCrArGrGrArGrUrUrCrArArCrArUrCrArCdTdT / antisense rGrUrGrArUrGrUrUrGrArArCrUrCrCrUrGrCrAdAdT	62.5
sense rUrGrCrCrCrGrGrCrUrGrCrArArGrCrCrUrUrGdTdT / antisense rCrArArGrGrCrUrUrGrCrArGrCrCrGrGrGrCrAdAdT	56.4
sense rUrGrCrCrGrCrArArUrArArGrArCrCrArArGrAdTdT / antisense rUrCrUrUrGrGrUrCrUrUrArUrUrGrCrGrGrCrAdTdT	69.3

Substance	normalised inhibition (eCFP-eYFP dual reporter) [%]
sense rUrGrCrCrGrCrUrCrCrCrArCrCrUrCrCrUrGrGdTdT / antisense rCrCrArGrGrArGrGrUrGrGrGrArGrCrGrGrCrAdCdC	24.9
sense rUrGrGrArUrGrArCrCrGrGrUrCrArArArGrCrUdTdT / antisense rArGrCrUrUrUrGrArCrCrGrGrUrCrArUrCrCrAdGdG	67.7
sense rUrGrGrGrGrUrCrUrArUrGrGrGrCrCrArArUrAdTdT / antisense rUrArUrUrGrGrCrCrCrArUrArGrArCrCrCrCrAdGdA	66.7
sense rUrGrUrUrUrGrCrArGrArUrUrArUrGrArGrGrCdTdT / antisense rGrCrCrUrCrArUrArArUrCrUrGrCrArArArCrAdTdC	38.5
sense rUrUrArCrCrArGrArGrArCrUrGrArUrGrArCrUdTdT / antisense rArGrUrCrArUrCrArGrUrCrUrCrUrGrGrUrArAdTdG	28.8
sense rUrUrCrArUrUrGrArCrArArCrArArArArUrArAdTdT / antisense rUrUrArUrUrUrUrGrUrUrGrUrCrArArUrGrArAdAdG	97.8
sense rUrUrCrCrUrArCrGrArGrCrUrUrCrUrUrArArGdTdT / antisense rCrUrUrArArGrArArGrCrUrCrGrUrArGrGrArAdTdG	59.8
sense rUrUrCrCrUrUrGrArUrUrCrGrUrGrUrGrCrUrGdTdT / antisense rCrArGrCrArCrArCrGrArArUrCrArArGrGrArAdTdT	22.1
sense rUrUrCrGrUrGrUrGrCrUrGrCrArGrArCrArUrUdTdT / antisense rArArUrGrUrCrUrGrCrArGrCrArCrArCrGrArAdTdC	40.2
sense rUrUrCrUrGrGrGrGrUrCrUrArUrGrGrGrCrCrAdTdT / antisense rUrGrGrCrCrCrArUrArGrArCrCrCrCrArGrArAdAdA	63.2
sense rUrUrGrArCrCrArArGrArUrGrCrArGrUrArGrGdTdT / antisense rCrCrUrArCrUrGrCrArUrCrUrUrGrGrUrCrArAdAdG	57.9
sense rUrUrGrArGrArArGrArArCrArUrUrCrArArArUdTdT / antisense rArUrUrUrGrArArUrGrUrUrCrUrUrCrUrCrArAdTdG	54.7
sense rUrUrGrCrArUrUrCrCrUrArCrGrArGrCrUrUrCdTdT / antisense rGrArArGrCrUrCrGrUrArGrGrArArUrGrCrArAdAdG	50.8
sense rUrUrUrCrArCrUrCrArGrArUrGrUrUrUrGrCrAdTdT / antisense rUrGrCrArArArCrArUrCrUrGrArGrUrGrArArAdCdG	42.4
sense rUrUrUrGrGrGrUrUrUrGrCrCrCrUrCrArCrArUdTdT / antisense rArUrGrUrGrArGrGrGrCrArArArCrCrCrArArAdTdG	73.4

Target: P2RX3
Test: reporter assay of Huesken 2005
Details: siRNA

Substance	normalised inhibition (eCFP-eYFP dual reporter) [%]
sense rArArCrCrGrArGrUrArGrUrUrCrArGrCrUrUrCdTdT / antisense rGrArArGrCrUrGrArArCrUrArCrUrCrGrGrUrUdGdA	62
sense rArArGrArCrCrUrGrCrCrGrCrUrUrCrCrArCrCdTdT / antisense rGrGrUrGrGrArArGrCrGrGrCrArGrGrUrCrUrUdCdA	39.9
sense rArArUrCrArGrArUrGrCrArArGrGrArUrUrCrUdTdT / antisense rArGrArArUrCrCrUrUrGrCrArUrCrUrGrArUrUdTdT	79.2
sense rArCrArGrCrCrArGrGrGrArCrArUrGrArArGrAdTdT / antisense rUrCrUrUrCrArUrGrUrCrCrCrUrGrGrCrUrGrUdCdA	78.1
sense rArCrArGrCrUrCrUrGrUrGrCrUrCrCrGrGrArCdTdT / antisense rGrUrCrCrGrGrArGrCrArCrArGrArGrCrUrGrUdAdG	59.2
sense rArCrCrArGrUrArCrArArArGrCrCrArArGrArAdTdT / antisense rUrUrCrUrUrGrGrCrUrUrUrGrUrArCrUrGrGrUdCdG	82.9
sense rArCrCrArUrCrGrGrGrArUrCrArUrCrArArCrCdTdT / antisense rGrGrUrUrGrArUrGrArUrCrCrCrGrArUrGrGrUdCdC	25.1
sense rArCrCrCrGrGrCrUrCrGrArCrArGrCrGrUrUrUdTdT / antisense rArArArCrGrCrUrGrUrCrGrArGrCrCrGrGrGrUdGdA	94.1
sense rArCrCrUrGrUrGrArGrArUrCrCrArGrGrGrCrUdTdT / antisense rArGrCrCrCrUrGrGrArUrCrUrCrArCrArGrGrUdCdC	50.2
sense rArCrGrCrCrArArCrArGrArGrUrCrArUrGrGrAdTdT / antisense rUrCrCrArUrGrArCrUrCrUrGrUrUrGrGrCrGrUdAdG	89.2
sense rArCrGrCrCrArCrCrUrCrArGrGrGrCrArCrCrUdTdT / antisense rArGrGrUrGrCrCrCrUrGrArGrGrUrGrGrCrGrUdCdA	8.6
sense rArCrUrCrCrUrUrCrArCrCrCrGrGrCrUrCrGrAdTdT / antisense rUrCrGrArGrCrCrGrGrGrUrGrArArGrGrArGrUdAdT	80.2
sense rArCrUrUrCrArCrUrArUrUrUrUrCrArUrCrArAdTdT / antisense rUrUrGrArUrGrArArArArUrArGrUrGrArArGrUdTdC	92.9
sense rArCrUrUrUrGrUrArGrGrGrUrGrGrGrUrUrUrUdTdT / antisense rArArArArCrCrCrArCrCrCrUrArCrArArArGrUdAdG	89.4
sense rArGrArCrUrArCrGrCrUrGrArArArArUrCrGrCdTdT / antisense rGrCrGrArUrUrUrUrCrArGrCrGrUrArGrUrCrUdCdA	77.1
sense rArGrGrArGrArArArUrArCrCrGrCrUrGrUrGrUdTdT / antisense rArCrArCrArGrCrGrGrUrArUrUrUrCrUrCrCrUdCdA	71.8
sense rArGrGrUrGrGrArCrArCrArGrUrGrGrArArArCdTdT / antisense rGrUrUrUrCrCrArCrUrGrUrGrUrCrCrArCrCrUdCdC	91.4
sense rArGrUrArCrArArArGrCrCrArArGrArArGrUrUdTdT / antisense rArArCrUrUrCrUrUrGrGrCrUrUrUrGrUrArCrUdGdG	99.5
sense rArGrUrCrGrGrUrGrGrUrUrGrUrGrArArGrArGdTdT / antisense rCrUrCrUrUrCrArCrArArCrCrArCrCrGrArCrUdTdG	64.9
sense rArGrUrUrCrArGrCrUrUrCrUrGrArUrCrArUrCdTdT / antisense rGrArUrGrArUrCrArGrArArGrCrUrGrArArCrUdAdC	72.3
sense rArUrCrArArGrArArCrArGrCrArUrCrCrGrUrUdTdT / antisense rArArCrGrGrArUrGrCrUrGrUrUrCrUrUrGrArUdGdA	70.6
